According to PMC6974622, “DeepMalaria: Artificial Intelligence Driven Discovery of Potent Antiplasmodials” (Frontiers in Pharmacology, 2020):
Several values for one entry are separate records, joined by “and”; a condition that tells them apart may be missing. Equal entries are not always repeated. Entries after “also recorded” stand apart in the source; their conditions may differ. Structures can show the parent of a compound that is named as a salt.

System: multidrug resistant P. falciparum strain Dd2
Assay: SYBR Green I Plasmodium growth inhibition assay (fixed concentration screen and EC50)
Format: cell-based, Plasmodium falciparum
Settings: Plasmodium falciparum; Pf Dd2, 1 µM, 72 h; read-out: Inhibition One-point (%)
Experimental: P. falciparum cultures were maintained under standard culture conditions in RPMI 1640 medium supplemented with 25 mM HEPES, pH 7.4, 26 mM NaHCO3, 2% dextrose, 15 mg/L hypoxanthine, 25 mg/L gentamycin, and 0.5% Albumax II maintained at 37°C in 5% CO2 and 95% air. Initially, a fixed concentration phenotypic screening was performed against multidrug resistant P. falciparum strain Dd2 (resistant to chloroquine, pyrimethamine, and mefloquine) using a SYBR Green I assay ([Johnson et al., 2007]; [Vossen et al., 2010]). An EVO-150 robotic liquid handler (Tecan, Morrisville, NC) was used to aliquot compounds at a final concentration of 1 µM followed by addition of culture to 96-well plates (Greiner, Monroe, NC) at 1% parasitemia, 2% hematocrit. Plates were incubated for 72 h at 37°C in a humidified atmosphere 5% CO2/95% air prior to freezing. Plates were subsequently thawed and 1X SYBR Green I was added with lysis buffer (20 mM Tris-HCl, 0.08% saponin, 5 mM EDTA, 0.8% Triton X-100). After incubation at room temperature in dark for 1 h, the fluorescent emission was measured at excition and emission wavelengths of 485 nm and 530 nm, respectively, using a BioTek Synergy neo2 (Winooski, VT) plate reader. […] Curve fitting was performed using GraphPad Prism and EC50 value was determined for each compound.

Compound	inhibition at 1 µM
CN1CCOc2ccccc2CCCCCC2(CCN(C(=O)[C@@H](N)c3ccccc3)CC2)C1=O [DC-9235, CN1CCOC2=C(CCCCCC3(CCN(CC3)C(=O)[C@@H](N)C3=CC=CC=C3)C1=O)C=CC=C2]	92%
CN1CCOc2ccccc2CCCCCC2(CCN(C(=O)[C@H](N)c3ccccc3)CC2)C1=O [DC-9239, CN1CCOC2=C(CCCCCC3(CCN(CC3)C(=O)[C@H](N)C3=CC=CC=C3)C1=O)C=CC=C2]	79%
CCc1nc2ccccc2c(C(=O)N2CCC3(CCCCOCCNC(=O)c4ccccc4OC3)CC2)c1C [DC-5931, CCC1=NC2=C(C=CC=C2)C(C(=O)N2CCC3(CC2)CCCCOCCNC(=O)C2=C(OC3)C=CC=C2)=C1C]	80%
Cc1cc(C)n(Cc2c(C(=O)N3CCC4(CCCCOC[C@@H]5CCCN5C(=O)c5cccc(c5)OC4)CC3)noc2C)n1 [DC-5921, CC1=NN(CC2=C(C)ON=C2C(=O)N2CCC3(CC2)CCCCOC[C@@H]2CCCN2C(=O)C2=CC(OC3)=CC=C2)C(C)=C1]	90%

Same assay, conditions: Plasmodium falciparum; Pf Dd2, 72 h; spread given in nM

Compound	EC50
Cc1cc(C)n(Cc2c(C(=O)N3CCC4(CCCCOC[C@@H]5CCCN5C(=O)c5cccc(c5)OC4)CC3)noc2C)n1 [DC-5921, CC1=NN(CC2=C(C)ON=C2C(=O)N2CCC3(CC2)CCCCOC[C@@H]2CCCN2C(=O)C2=CC(OC3)=CC=C2)C(C)=C1]	0.9 nM

Same assay, conditions: test dataset (macrocyclic library), class label, 1 µM

Compound	DD2
C[C@H]1C(=O)NCCOc2ccccc2C(=O)N[C@H](C(=O)NCCCc2ccccc2)CCC(=O)N1C	0 (zero if otherwise)
CC(=O)N1CCCN(Cc2ccccc2)CCN(C(=O)c2ccccc2F)Cc2cc(F)c(F)cc21	0 (zero if otherwise)
Cn1cnnc1C1CCCCN1C(=O)CN1CCC2(CCCCc3ccccc3OCCCNC2=O)CC1 (centres unmarked)	0 (zero if otherwise)
Cc1noc(C2CCCN2C(=O)CN2CCC3(CCCCc4ccccc4OCCCNC3=O)CC2)n1 (centres unmarked)	0 (zero if otherwise)

System: human hepatoma cell line HepG2
Assay: MTS based cytotoxicity assay (counter-screen for selectivity)
Format: cell-based
Settings: 48 h
Experimental: Selectivity was determined by counter-screening against human hepatoma cell line HepG2 in a MTS (3-(4,5-Dimethylthiazol-2-yl)-5-(3-carboxymethoxyphenyl)-2-(4-sulfophenyl)-2H-tetrazolium) based cytotoxicity assay (CellTiter 96® Aqueous One, Promega, Madison, WI) ([Riss et al., 2004]). Briefly, microtiter plates were seeded with 1,500 cells per well in a 384 well plate and incubated for 24 h at 37°C in 5% CO2/95% air atmosphere. The next day, compounds were added at seven different serially diluted concentrations starting at 25 µM d incubated for additional 48 h at stated conditions. MTS solution was next added to each well, incubated for additional 3 h at 37°C, and absorbance was read at 490 nm using BioTek Synergy neo 2 plate reader. Untreated cells served as control. Curve fitting was performed using GraphPad Prism and EC50 value was determined.

Compound	EC50
CN1CCOc2ccccc2CCCCCC2(CCN(C(=O)[C@@H](N)c3ccccc3)CC2)C1=O [DC-9235, CN1CCOC2=C(CCCCCC3(CCN(CC3)C(=O)[C@@H](N)C3=CC=CC=C3)C1=O)C=CC=C2]	> 25 µM
CN1CCOc2ccccc2CCCCCC2(CCN(C(=O)[C@H](N)c3ccccc3)CC2)C1=O [DC-9239, CN1CCOC2=C(CCCCCC3(CCN(CC3)C(=O)[C@H](N)C3=CC=CC=C3)C1=O)C=CC=C2]	24.2 µM
CCc1nc2ccccc2c(C(=O)N2CCC3(CCCCOCCNC(=O)c4ccccc4OC3)CC2)c1C [DC-5931, CCC1=NC2=C(C=CC=C2)C(C(=O)N2CCC3(CC2)CCCCOCCNC(=O)C2=C(OC3)C=CC=C2)=C1C]	> 25 µM
Cc1cc(C)n(Cc2c(C(=O)N3CCC4(CCCCOC[C@@H]5CCCN5C(=O)c5cccc(c5)OC4)CC3)noc2C)n1 [DC-5921, CC1=NN(CC2=C(C)ON=C2C(=O)N2CCC3(CC2)CCCCOC[C@@H]2CCCN2C(=O)C2=CC(OC3)=CC=C2)C(C)=C1]	> 25 µM

System: P. falciparum Dd2
Assay: Stage-specific activity assay (Giemsa smears, YOYO-1 flow cytometry)
Format: cell-based, Plasmodium falciparum
Settings: synchronized Dd2, compound at 3X EC50 added at 6, 18, 30, 42 hpi
Experimental: P. falciparum Dd2 cell line was synchronized using a combination of 5% sorbitol and magnetic column separation as described ([Roberts et al., 2016]). Cultures at 2% parasitemia and 2% hematocrit were added to microtiter plate wells and measurements began 6 h post-invasion (6 hpi). Hit compounds were added at 3X EC50 concentration at specified time points. Controls are DHA (3X EC50) and untreated cultures. Giemsa-stained thin smears were made for each time point and an aliquot of the culture was fixed for flow cytometric analysis using 0.04% glutaraldehyde in PBS. After fixing and aspirating, cells were permeabilized with 0.25% Triton-100 followed by treatment with RNase (0.05 mg/ml) for 3 h. Next, YOYO 1 (10.24 µM) fluorescent dye was added and samples were analyzed ([Bouillon et al., 2013]) using Beckman Coulter (Indianapolis, IN) CytoFlex S flowcytometer.

Compound	Stage specific activity
CCc1nc2ccccc2c(C(=O)N2CCC3(CCCCOCCNC(=O)c4ccccc4OC3)CC2)c1C [DC-5931, CCC1=NC2=C(C=CC=C2)C(C(=O)N2CCC3(CC2)CCCCOCCNC(=O)C2=C(OC3)C=CC=C2)=C1C]	mostly active in early stages; also recorded: inhibit the early stages
Cc1cc(C)n(Cc2c(C(=O)N3CCC4(CCCCOC[C@@H]5CCCN5C(=O)c5cccc(c5)OC4)CC3)noc2C)n1 [DC-5921, CC1=NN(CC2=C(C)ON=C2C(=O)N2CCC3(CC2)CCCCOC[C@@H]2CCCN2C(=O)C2=CC(OC3)=CC=C2)C(C)=C1]	active in early stages, late Troph and early schizont; also recorded: inhibit the early stages

System: Pf (DD2)
Assay: Validation dataset: previously performed HTS at University of Central Florida, Chakrabarti Laboratory
Format: cell-based, Plasmodium falciparum
Settings: class label
Experimental: The validation dataset consists of the results from previously performed HTS in University of Central Florida at the Chakrabarti Laboratory, consisting of natural-products, kinase inhibitors from commercial vendors Asinex (Winston-Salem, NC)and ChemDiv (San Diego, CA) libraries. This dataset contains 4,497 molecules and their inhibition property. […] Using this external validation dataset, the realistic capabilities of the model are evaluated in the validation process. The raw data supporting the conclusions of this manuscript will be made available by the authors, without any restriction, to any qualified researcher (Supplementary Material 4).

Compound	DD2
C=CCOC(=O)C1=C(C)NC(=S)NC1c1ccc(C(C)(C)C)cc1 (centres unmarked)	0 (zero if otherwise)
O=C1NC(=S)S/C1=C\c1ccc(O)cc1 [O=C1NC(=S)S/C1=C\c1ccc(O)cc1]	0 (zero if otherwise)
C=CCN1C(=O)COc2ccc(NC(=O)c3oc4cc(C)ccc4c3C)cc21	0 (zero if otherwise)
COc1ccc(-c2nc3n(n2)C(c2cccnc2)C2=C(CC(C)(C)CC2=O)N3)cc1 (centres unmarked)	0 (zero if otherwise)

System: 3D7
Assay: not given
Set-up: unit not given here
Settings: cited from earlier work

Compound	3D7
Phenylmercuric acetate	97.7
CC1=CC(=C(c2ccc(N)cc2)c2ccc(N)cc2)C=CC1=N.Cl [Basic fuchsin]	96.3
CN(C)c1ccc(C(=C2C=CC(=[N+](C)C)C=C2)c2ccccc2)cc1 [Malachite green]	86.9

Same assay, conditions: repurposing dataset, 179 approved drugs; ref https://www.nature.com/articles/nchembio806; cited from earlier work

Compound	3D7
[H]/N=C(\N/C(=N/[H])NCCCCCCNC(=N)NC(=N)Nc1ccc(Cl)cc1)Nc1ccc(Cl)cc1 [Chlorhexidine]	95.4
CCN(CC)CCCC(C)Nc1c2ccc(Cl)cc2nc2ccc(OC)cc12 (centres unmarked) [Quinacrine]	99.2
CN(C)C(=S)SSC(=S)N(C)C [Thiram]	96.7
CC(=O)c1ccc2c(c1)N(CCCN1CCC(CCO)CC1)c1ccccc1S2 [Piperacetazine]	88.5
CC/C(=C(/CC)c1ccc(O)cc1)c1ccc(O)cc1 [Diethylstilbestrol]	57.3
CCCCCCCCCCCCCCCCOP(=O)([O-])OCC[N+](C)(C)C [Miltefosine]	99.5
C=C[C@H]1C[N@@]2CC[C@H]1C[C@@H]2[C@@H](O)c1ccnc2ccc(OC)cc12 [Quinidine]	88.5
[Cl][Mn][Cl] [Manganese chloride]	94.1
CC(=O)[O][Pt]([NH2])([Cl])([Cl])([NH]C1CCCCC1)[O]C(C)=O [Satraplatin]	87.3
C=CC(=O)O [Acrylic acid]	68.8
CC[C@]1(O)C[C@H]2CN(CCc3c([nH]c4ccccc34)[C@@](C(=O)OC)(c3cc4c(cc3OC)N(C=O)[C@H]3[C@@](O)(C(=O)OC)[C@H](OC(C)=O)[C@]5(CC)C=CCN6CC[C@]43[C@@H]65)C2)C1 [Vincristine]	69.5
Cc1cc(N)c2ccccc2[n+]1CCCCCCCCCC[n+]1c(C)cc(N)c2ccccc21 [Dequalinium chloride]	97.6
COc1ccc(C[C@H](N)C(=O)N[C@H]2[C@@H](O)[C@H](n3cnc4c(N(C)C)ncnc43)O[C@@H]2CO)cc1 [Puromycin]	98.9
Nc1c2ccccc2nc2ccccc12 [Aminacrine]	97.6
CO[C@H]1/C=C\O[C@@]2(C)Oc3c(C)c(O)c4c(O)c(c(C=O)c(O)c4c3C2=O)NC(=O)/C(C)=C\C=C/[C@H](C)[C@H](O)[C@@H](C)[C@@H](O)[C@@H](C)[C@H](OC(C)=O)[C@@H]1C [3-formyl rifamycin]	99
CCCCCCCCCCCC[N+](C)(C)Cc1ccccc1 [Benzododecinium chloride]	99.9
C[n+]1c2cc(N)ccc2cc2ccc(N)cc21.Nc1ccc2cc3ccc(N)cc3nc2c1.[Cl-] [Acriflavine]	98.2 and 99
COc1cccc2c1C(=O)c1c(O)c3c(c(O)c1C2=O)C[C@@](O)(C(=O)CO)C[C@@H]3O[C@H]1C[C@H](N)[C@H](O)[C@H](C)O1 [Doxorubicin]	99.5
CCCC(C(=O)OCCN(CC)CC)(c1ccccc1)c1ccccc1 [Proadifen]	85.9
CC[C@]1(O)C[C@@H]2CN(CCc3c([nH]c4ccccc34)[C@@](C(=O)OC)(c3cc4c(cc3OC)N(C)[C@H]3[C@@](O)(C(=O)OC)[C@H](OC(C)=O)[C@]5(CC)C=CCN6CC[C@]43[C@@H]65)C2)C1 [Vinblastine]	66.7
Cc1nc2n(c(=O)c1CCN1CCC(c3noc4cc(F)ccc34)CC1)CCCC2 [Risperidone]	67.5
N[C@H](C(=O)O)[C@@H]1CC(Cl)=NO1 [Acivicin]	98.6
OC(c1cc(C(F)(F)F)nc2c(C(F)(F)F)cccc12)C1CCCCN1 (centres unmarked) [Mefloquine]	97.7
CN1C[C@H](C(=O)N[C@]2(C)O[C@@]3(O)[C@@H]4CCCN4C(=O)[C@H](Cc4ccccc4)N3C2=O)C[C@@H]2c3cccc4[nH]cc(c34)C[C@H]21 [Dihydroergotamine mesylate]	88.1
Oc1ccc(CCN2CCC(Nc3nc4ccccc4n3Cc3ccc(F)cc3)CC2)cc1 [Desmethylastemizole]	96.7
